Source: US20240139188A1, “Arylamide Compounds For Treatment And Prevention Of Fungal Infections” (priority 2022, published 2024)
Converted amounts (≈) assume the structure as drawn. Read-outs that look alike come from different tables or passages of the source.

Legend:
[1] = system: Candida lusitaniae; experiment: In vitro susceptibility (MIC), macrobroth dilution; assay type: cell-based; settings: Clavispora lusitaniae, Candida lusitaniae 22-16
[2] = system: Aspergillus terreus; experiment: In vitro susceptibility (MIC), macrobroth dilution; assay type: cell-based; settings: Aspergillus terreus 12-70
[3] = system: Candida auris; experiment: In vitro susceptibility (MIC), macrobroth dilution; assay type: cell-based; settings: Candidozyma auris, Candida auris 20-253
[4] = system: Mucorales Unspeciated zygomycete; experiment: In vitro susceptibility (MIC), macrobroth dilution; assay type: cell-based; settings: Mucorales Unspeciated zygomycete 07-140
[5] = system: Aspergillus niger; experiment: In vitro susceptibility (MIC), macrobroth dilution; assay type: cell-based; settings: Aspergillus niger 22-4
[6] = system: Candida albicans; experiment: In vitro susceptibility (MIC), macrobroth dilution; assay type: cell-based; settings: Candida albicans, C. albicans 5, drug alone
[7] = system: A. fumigatus biofilms; experiment: Biofilm assay (XTT); settings: Aspergillus fumigatus, read-out: inhibition of biofilm formation
Experimental: Biofilm assay: To test the susceptibility of pre-formed A. fumigatus biofilms to
VOR, CAS and to the combination of CAS+BRI and VOR+BRI, a suspension containing 10^6 conidia per mL of the wild-type strain (Δku80 pyrG^+) was prepared in liquid MM and 100 μL of it was inoculated in each well of a 96-well plate. After 24 hours of incubation at 37° C., 50 μL of fresh MM containing CAS, VOR or the combination of VOR and CAS with BRI was added to the biofilm to reach the final concentration as indicated and incubated for a further 12 hours at 37° C. Wells containing untreated conidia were used as a positive control. After, the metabolic activity of the cells was evaluated by adding 50 μL of an aqueous XTT solution (1 mg/mL of XTT and 125 μM of menadione) to each well. The plate was incubated for additional 1 hour at 37° C., centrifuged (2000 rpm, 5 minutes) and 100 μL of the supernatant was transferred to a flat-bottomed 96-well plate. The absorbance was measured at 450 nm on a plate reader (Synergy HTX Multi-Mode Reader- BioTek Instruments). The XTT assay's were performed in six replicates.

[8] = system: A. fumigatus; experiment: Alamar blue metabolic activity assay; assay type: cell-based, Aspergillus fumigatus; settings: ΔmpkA mutant, BRI 20 μM, 48 hours
[9] = system: Candida krusei; experiment: In vitro susceptibility (MIC), macrobroth dilution; assay type: cell-based; settings: Pichia kudriavzevii, Candida krusei 03-287 (fluconazole-resistant)
[10] = system: Aspergillus lentulus; experiment: In vitro susceptibility (MIC), macrobroth dilution; assay type: cell-based; settings: Aspergillus lentulus 14-39
[11] = system: C. auris; experiment: BRI+CAS against yeasts, colony forming units; settings: plating after 48 hours
Experimental: (§1) Combination of Brilacidin and caspofungin against yeasts: For measuring the effect of the combination BRI+CAS against yeast fungal pathogens, two methods were used: (i) metabolic activity by XTT-assay and (ii) colony forming units (CFUs). For the first method, C. neoformans, C. albicans, and C. auris 10^4 cells were inoculated in RPMI-1640 supplemented with CAS 0 to 32 μg/ml (for C. neoformans) and 0 to 1 μg/ml (for Candida spp.) or the same concentrations of CAS combined with BRI 0.625 μM (for C. neoformans), BRI 20 μM (for C. albicans), and BRI 10 μM (for C. auris). […] XTT-assays were also used for C. albicans caspofungin resistant strains but with CAS 0.5 μg/ml combined with BRI 5, 10 or 20 μM. The same experimental design was used for the CFUs determination, except that after 48 hours the cells present in the wells were plated on YPD (yeast extract 10g, peptone 20g, dextrose 20g, agar 20 g, water 1000 mL) and the plates were incubated at 30° C. for 24-48 hours for determining the survival percentage.

[12] = system: Cryptococcus neoformans; experiment: In vitro susceptibility (MIC), macrobroth dilution; assay type: cell-based; settings: Cryptococcus neoformans, C. neoformans CN9759, drug alone
[13] = system: Lomentospora prolificans; experiment: In vitro susceptibility (MIC), macrobroth dilution; assay type: cell-based
[14] = system: Exserohilum species; experiment: In vitro susceptibility (MIC), macrobroth dilution; assay type: cell-based; settings: Exserohilum species 19-48
[15] = system: Aspergillus fumigatus; experiment: In vitro susceptibility (MIC), macrobroth dilution; assay type: cell-based; settings: for MIC50 / MIC: Aspergillus fumigatus
[16] = system: Torulopsis glabrata; experiment: In vitro susceptibility (MIC), macrobroth dilution; assay type: cell-based; settings: Nakaseomyces glabratus, Torulopsis glabrata 22-21
[17] = system: critical fungal pathogens; experiment: Checkerboard drug interaction testing (FICi), BRI with conventional antifungals; assay type: cell-based; settings: organisms tested, with the exception of Aspergillus
[18] = system: Acremonium species; experiment: In vitro susceptibility (MIC), macrobroth dilution; assay type: cell-based; settings: Acremonium species 18-51
[19] = system: Mucorales Mucor species; experiment: In vitro susceptibility (MIC), macrobroth dilution; assay type: cell-based; settings: Mucor
[20] = system: C. albicans; experiment: BRI+CAS against yeasts, colony forming units; settings: plating after 48 hours
Experimental: as §1

[21] = system: A. fumigatus conidia infecting A549 pulmonary cells; experiment: Killing assay in infected A549 cells; assay type: cell-based, Aspergillus fumigatus; settings: monotherapy
Experimental: Killing assay: The type II pneumocyte cell line A549 was cultured using DMEM (ThermoFischer Scientific, Paisley. […] After 24 hours of incubation in 5% CO2 the culture media was removed, and 2 ml of sterile water was added to the wells. A P1000 tip was then used to scrape away the cell monolayer and the cell suspension was collected. This suspension was then diluted 1:1000 and 100 μl was plated on Sabouraud Dextrose Agar Media before the plates were incubated a 37° C. overnight. The numbers of CFUs were determined after 24 hours of growth. A volume of 50 μl of the inoculum adjusted to 103/ml was also plated on SAB agar to correct CFU counts. The CFU percentage for each sample was calculated and the results were plotted using Graphpad Prism (GraphPad Software, Inc., La Jolla, CA, USA).

[22] = system: C. albicans; experiment: BRI+CAS against yeasts, XTT metabolic activity; settings: absence of BRI
[23] = system: C. neoformans; experiment: BRI+CAS against yeasts, XTT metabolic activity; settings: CAS alone, 48 hours
[24] = read-out: 50% Inhibition BRI (MIC50)
[25] = read-out: 100% Inhibition BRI (MIC100)
[26] = lowest concentration causing 50% decrease in growth vs untreated control, read-out: MIC50
[27] = lowest concentration without growth, read-out: MIC100

N=C(N)NCCCCC(=O)Nc1cc(C(F)(F)F)cc(NC(=O)c2cc(C(=O)Nc3cc(C(F)(F)F)cc(NC(=O)CCCCNC(=N)N)c3OC3CCNC3)ncn2)c1OC1CCNC1 (stereo not shown) [BRI, brilacidin]
MIC50 [1, 24]: 8 µg/mL (≈ 8.54 µM) | MIC [1, 25]: 8 µg/mL (≈ 8.54 µM) | MIC50 [2, 24]: > 64 µg/mL | MIC [2, 25]: > 64 µg/mL | MIC50 [3, 24]: > 64 µg/mL | MIC [3, 25]: > 64 µg/mL | MIC50 [4, 24]: 2 µg/mL (≈ 2.13 µM) | MIC [4, 25]: 16 µg/mL (≈ 17.1 µM) | MIC50 [5, 24]: 8 µg/mL (≈ 8.54 µM) | MIC [5, 25]: 16 µg/mL (≈ 17.1 µM) | MIC50 [6, 26]: 4 µg/mL (≈ 4.27 µM) | MIC [6, 27]: > 64 µg/mL | inhibition at 20 µM [7]: ~10% | inhibition at 40 µM [7]: ~60% | metabolic activity (Alamar blue) in presence vs absence of BRI [8]: significantly decreased metabolic activity | MIC50 [9, 24]: 8 µg/mL (≈ 8.54 µM) | MIC [9, 25]: 16 µg/mL (≈ 17.1 µM) | MIC50 [10, 24]: 32 µg/mL (≈ 34.2 µM) | MIC [10, 25]: > 64 µg/mL | Mechanism ([11]; Candida auris 467/2015): Fungicidal | Mechanism ([11]; Candida auris 468/2015): Fungicidal | Mechanism ([11]; Candida auris 469/2015): Fungicidal | Mechanism ([11]; Candida auris 470/2015): Fungicidal | Mechanism ([11]; Candida auris 471/2015): Fungicidal | MIC50 [12, 26]: 1 µg/mL (≈ 1.07 µM) | MIC [12, 27]: 8 µg/mL (≈ 8.54 µM) | MIC50 [13, 24]: 4 µg/mL (≈ 4.27 µM) | MIC [13, 25]: 8 µg/mL (≈ 8.54 µM) | MIC50 [14, 24]: 1 µg/mL (≈ 1.07 µM) | MIC [14, 25]: 16 µg/mL (≈ 17.1 µM) | MIC100 ([15]; A. fumigatus 21-23, drug alone, lowest concentration without growth): >64 µg/mL | MIC50 ([15]; A. fumigatus 10AF, drug alone, lowest concentration causing 50% decrease in growth vs untreated control, read-out: MIC50): 64 µg/mL (≈ 68.3 µM) | MIC50 ([15]; A. fumigatus 21-23, drug alone, lowest concentration causing 50% decrease in growth vs untreated control, read-out: MIC50): 64 µg/mL (≈ 68.3 µM) | MIC ([15]; A. fumigatus 10AF, drug alone, lowest concentration without growth, read-out: MIC100): > 64 µg/mL | MIC50 [15, 24]: > 64 µg/mL | MIC [15, 25]: > 64 µg/mL | MIC50 [16, 24]: 64 µg/mL (≈ 68.3 µM) | MIC [16, 25]: > 64 µg/mL | in vitro activity of BRI alone [17]: favorable in vitro activity | MIC50 [18, 24]: 4 µg/mL (≈ 4.27 µM) | MIC [18, 25]: > 64 µg/mL | MIC50 ([19]; Mucor sp. 13-127, drug alone, lowest concentration causing 50% decrease in growth vs untreated control, read-out: MIC50): 4 µg/mL (≈ 4.27 µM) | MIC ([19]; Mucor sp. 13-127, drug alone, lowest concentration without growth, read-out: MIC100): 64 µg/mL (≈ 68.3 µM) | MIC ([19]; Mucorales Mucor species, read-out: 100% Inhibition BRI (MIC100)): 32 µg/mL (≈ 34.2 µM) | Mechanism ([20]; Candida albicans DPL1006 CAS^R): Fungicidal | Mechanism ([20]; Candida albicans DPL1007 CAS^R): Fungicidal | Mechanism ([20]; Candida albicans DPL1009 CAS^R): Fungicidal | Mechanism ([20]; Candida albicans DPL1010 CAS^R): Fungicidal | Mechanism ([20]; Candida albicans DPL1011 CAS^R): Fungicidal | Mechanism ([20]; Candida albicans SC5314): Fungicidal

CC[C@H](C)C[C@H](C)CCCCCCCCC(=O)N[C@H]1C[C@@H](O)[C@@H](NCCN)NC(=O)[C@@H]2[C@@H](O)CCN2C(=O)[C@H]([C@H](O)CCN)NC(=O)[C@H]([C@H](O)[C@@H](O)c2ccc(O)cc2)NC(=O)[C@@H]2C[C@@H](O)CN2C(=O)[C@H]([C@@H](C)O)NC1=O [CAS, caspofungin]
A. fumigatus killing [21]: 25% | inhibition at 0.25 µg/mL [7]: ~10% | inhibition at 2 µg/mL [7]: ~10% | CAS concentration for complete inhibition of metabolic activity (XTT) and survival (CFUs) [22]: ~0.125 µg/mL | CAS concentration that completely inhibits metabolic activity (XTT) [23]: 32 µg/mL
